Assay results published in ChEMBL document CHEMBL1201862, “PubChem BioAssay data set” (2004).
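Dose response: 5 concentrations. Exposure: 48 h. Format: 96-well plates. Endpoint: linear interpolation; highest concentration if not reached. GI50 marks 50% less growth.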 The source made the active and inactive calls. No stated cut-off is given here; in the data, active = GI50 up to about 1.1 µM and inactive = higher.

Experiments:
Test in all cases: growth of human tumour cells (NCI), 48 h
KM-20L2 = system: KM-20L2
UACC-257 = system: UACC-257
HT-29 = system: HT-29
OVCAR-8 = system: OVCAR-8
U-251 = system: U-251
SN12C = system: SN12C
CAKI-1 = system: CAKI-1
SK-MEL-28 = system: SK-MEL-28
DMS-273 = system: DMS-273
SK-MEL-2 = system: SK-MEL-2
UACC-62 = system: UACC-62
786-0 = system: 786-0
OVCAR-3 = system: OVCAR-3
HCT-116 = system: HCT-116
HCC 2998 = system: HCC 2998
SNB-75 = system: SNB-75
SK-MEL-5 = system: SK-MEL-5
OVCAR-4 = system: OVCAR-4
Malme-3M = system: Malme-3M
LOX IMVI = system: LOX IMVI
ACHN = system: ACHN
RXF 631 = system: RXF 631
DMS-114 = system: DMS-114
HCT-15 = system: HCT-15
UO-31 = system: UO-31
EKVX = system: EKVX
HOP-92 = system: HOP-92
NCI-H226 = system: NCI-H226
XF498 = system: XF498
M19-MEL = system: M19-MEL
SNB-78 = system: SNB-78
HOP-18 = system: HOP-18
NCI-H460 = system: NCI-H460
HL-60 = system: HL-60
LXFL 529 = system: LXFL 529
RXF 393 = system: RXF 393
MOLT-4 = system: MOLT-4
OVCAR-5 = system: OVCAR-5
SNB-19 = system: SNB-19
SF-295 = system: SF-295
HOP-62 = system: HOP-62
K562 = system: K562
M14 = system: M14
DLD-1 = system: DLD-1
SW-620 = system: SW-620
IGROV-1 = system: IGROV-1
KM12 = system: KM12
COLO 205 = system: COLO 205
SK-OV-3 = system: SK-OV-3
CCRF-CEM = system: CCRF-CEM
TK-10 = system: TK-10
RPMI-8226 = system: RPMI-8226
A549 = system: A549
NCI-H522 = system: NCI-H522
A498 = system: A498
SF-539 = system: SF-539
SF-268 = system: SF-268
NCI-H23 = system: NCI-H23

Measured: GI50

C[Si](C)(C)CC(N)=O
> 100 µM: HCT-15
inactive: KM-20L2 > 100 µM | UACC-257 > 100 µM | HT-29 > 100 µM | OVCAR-8 > 100 µM | U-251 > 100 µM | SN12C > 100 µM | CAKI-1 > 100 µM | SK-MEL-28 > 100 µM | DMS-273 > 100 µM | SK-MEL-2 > 100 µM | UACC-62 > 100 µM | 786-0 > 100 µM | OVCAR-3 > 100 µM | HCT-116 > 100 µM | HCC 2998 > 100 µM | SNB-75 > 100 µM | SK-MEL-5 > 100 µM | OVCAR-4 > 100 µM | Malme-3M > 100 µM | LOX IMVI > 100 µM | ACHN > 100 µM | RXF 631 > 100 µM | DMS-114 > 100 µM | UO-31 > 100 µM | EKVX > 100 µM | HOP-92 > 100 µM | NCI-H226 > 100 µM | XF498 > 100 µM | M19-MEL > 100 µM | SNB-78 > 100 µM | HOP-18 > 100 µM | NCI-H460 > 100 µM | HL-60 > 100 µM | LXFL 529 > 100 µM | RXF 393 > 100 µM | MOLT-4 > 100 µM | OVCAR-5 > 100 µM | SNB-19 > 100 µM | SF-295 > 100 µM | HOP-62 > 100 µM | K562 > 100 µM | M14 > 100 µM | DLD-1 > 100 µM | SW-620 > 100 µM | IGROV-1 > 100 µM | KM12 > 100 µM | COLO 205 > 100 µM | SK-OV-3 > 100 µM | CCRF-CEM > 100 µM | TK-10 > 100 µM | RPMI-8226 > 100 µM | A549 > 100 µM

CCOC(OC(C)=O)[C@@H]1C=C[C@H](C)N(c2ccc([N+](=O)[O-])cc2)O1 (stereo partly specified)
2.4 µM: HCT-15
active: RXF 393 0.759 µM
inactive: KM-20L2 8.55 µM | UACC-257 9.82 µM | HT-29 3.17 µM | OVCAR-8 2.02 µM | U-251 2.74 µM | SN12C 3.4 µM | CAKI-1 7.8 µM | NCI-H522 3.16 µM | SK-MEL-28 3.01 µM | DMS-273 3.19 µM | SK-MEL-2 4.26 µM | UACC-62 2.54 µM | A498 27.6 µM | 786-0 2.67 µM | OVCAR-3 5.66 µM | HCT-116 1.25 µM | HCC 2998 11.9 µM | SNB-75 4.79 µM | SK-MEL-5 4 µM | OVCAR-4 6.49 µM | Malme-3M 7.98 µM | LOX IMVI 1.87 µM | ACHN 5.13 µM | RXF 631 4.98 µM | DMS-114 4.69 µM | UO-31 3.45 µM | EKVX 16.1 µM | HOP-92 6.25 µM | NCI-H226 5.57 µM | XF498 14.6 µM | M19-MEL 2.14 µM | SNB-78 7.48 µM | HOP-18 8.79 µM | NCI-H460 10.6 µM | HL-60 1.82 µM | LXFL 529 3.65 µM | MOLT-4 1.86 µM | OVCAR-5 2.76 µM | SNB-19 14.7 µM | SF-295 11.4 µM | HOP-62 10.7 µM | K562 2.73 µM | M14 3.06 µM | SF-539 2.54 µM | DLD-1 2.59 µM | SW-620 2.46 µM | IGROV-1 7.98 µM | KM12 2.5 µM | SF-268 3.13 µM | COLO 205 11.9 µM | SK-OV-3 17.8 µM | CCRF-CEM 2.29 µM | TK-10 5.7 µM | NCI-H23 2.84 µM | RPMI-8226 2.06 µM | A549 20.2 µM
